Test [1] addresses Gamma-secretase. Description: Inhibition of gamma-secretase (unknown origin) expressed in N2a NL/N cells coexpressing betaAPPNL and NotchdeltaE assessed as Abeta42 secretion by ELISA. The format is cell-based, Homo sapiens. A general note: In an ELISA, binding on a coated surface is turned into a signal by an enzyme label.
Test [2] deals with Gamma-secretase. Description: Inhibition of gamma-secretase (unknown origin) expressed in N2a NL/N cells coexpressing betaAPPNL and NotchdeltaE assessed as Abeta40 secretion by ELISA. The format is cell-based, Homo sapiens.
Test [3] addresses T1, Gamma-secretase (Homo sapiens) (UniProt Q96BI3+Q9NZ42+Q8WW43+P49768+Q92542+P49810). Description: Displacement of biotinylated PS1NTF from gamma-secretase (unknown origin). Type of test: protein-complex assay.
Test [4] deals with T1, Gamma-secretase (Homo sapiens). Description: Inhibition of gamma-secretase in human H4 glioma cells assessed as Abeta production at 0.1 to 10 µM by immunoblot analysis. Type of test: cell-based.
For test [5] the target is unchanged. Put plainly: Ratio of IC50 for gamma-secretase-mediated inhibition of notch intracellular cytoplasmic domain secretion to IC50 for gamma-secretase-mediated inhibition of Abeta42 secretion in human HEK293 cells expressing APPNL/NotchDeltaE/EGFP/UAS-firefly luciferase by ELISA. The format is cell-based.
Test [6] addresses Gamma-secretase. Put plainly: Inhibition of gamma-secretase in human HEK293 cells expressing APPNL/NotchDeltaE/EGFP/UAS-firefly luciferase assessed as inhibition of notch intracellular cytoplasmic domain secretion by ELISA. The format is cell-based.
Test [7] concerns the target Gamma-secretase. Put plainly: Inhibition of gamma-secretase in human HEK293 cells expressing APPNL/NotchDeltaE/EGFP/UAS-firefly luciferase assessed as inhibition of Abeta42 secretion by ELISA. The format is cell-based.
The target in test [8] is Gamma-secretase. Description: Inhibition of gamma-secretase in human HEK293 cells expressing APPNL/NotchDeltaE/EGFP/UAS-firefly luciferase assessed as inhibition of IAbeta40 secretion by ELISA. Type of test: cell-based.
For test [9], the target named is T1, Gamma-secretase (Homo sapiens). Put plainly: Inhibition of gamma-secretase (unknown origin) expressed in N2a NL/N cells coexpressing betaAPPNL and NotchdeltaE assessed as Abeta42 secretion at 100 nM by ELISA. Type of test: cell-based.
The target is the same in test [10]. Description: Inhibition of gamma-secretase (unknown origin) expressed in N2a NL/N cells coexpressing betaAPPNL and NotchdeltaE assessed as Abeta40 secretion at 100 nM by ELISA. Type of test: cell-based.

As a reminder, the pIC50 is the negative decadic logarithm of the IC50, by convention in mol/L.

Structures are written as SMILES. pIC50: −log10 of the molar value. Active and inactive are the calls of the source. The rule behind the calls is not given here.

As for `O=S(=O)(N[C@H](CO)C(C(F)(F)F)C(F)(F)F)c1ccc(Cl)s1` [BEGACESTAT], the results for the pIC50 on Gamma-secretase [1] and at Gamma-secretase [2] were 6.38 and 6.69, respectively.

With `CC(=O)N1CCC[C@@H]1C(=O)N1CCC[C@@H]1C(=O)N1CCC[C@@H]1C(=O)N1CCC[C@@H]1C(=O)N1CCC[C@@H]1C(=O)N1CCC[C@@H]1C(=O)N1CCC[C@@H]1C(=O)N1CCC[C@@H]1C(=O)N1CCC[C@@H]1C(N)=O`, the pIC50 at Gamma-secretase [1] and at Gamma-secretase [2] was less than 4.52 each time.

As to `CC(=O)N[C@H]1CCC[C@@H]1C(=O)N[C@H]1CCC[C@@H]1C(=O)NC(CO)CC(=O)N[C@H]1CCC[C@@H]1C(=O)N[C@H]1CCC[C@@H]1C(=O)N[C@H]1CCC[C@@H]1C(=O)N[C@H]1CCC[C@@H]1C(=O)N[C@H]1CCC[C@@H]1C(=O)N[C@H]1CCC[C@@H]1C(=O)N[C@H]1CCC[C@@H]1C(=O)N[C@H]1CCC[C@@H]1C(=O)N[C@H]1CCC[C@@H]1C(N)=O` (single isomer, unassigned), in [3], the result was Active. For the same compound, the inhibition result in test [4], in test [9] and in test [10] was “Active” throughout. Further, in test [5], the Ratio IC50 came out at 0.478. In addition, the pIC50 on Gamma-secretase [6] was 7.38; at Gamma-secretase [7], 7.06; at Gamma-secretase [8] it was 7.07; at Gamma-secretase [1], 9.08; on Gamma-secretase [2], 9.40.

Take `CC(=O)N1CCC[C@@H]1C(=O)N1CCC[C@@H]1C(=O)N1CCC[C@@H]1C(=O)N1CCC[C@@H]1C(=O)N1CCC[C@@H]1C(=O)N1CCC[C@@H]1C(N)=O`: the pIC50 on Gamma-secretase [1] and on Gamma-secretase [2] was less than 4.52 each time.

With `CC(=O)N[C@H]1CCC[C@@H]1C(=O)N[C@H]1CCC[C@@H]1C(=O)NCCC(=O)N[C@H]1CCC[C@@H]1C(=O)N[C@H]1CCC[C@@H]1C(=O)N[C@H]1CCC[C@@H]1C(=O)N[C@H]1CCC[C@@H]1C(=O)N[C@H]1CCC[C@@H]1C(=O)N[C@H]1CCC[C@@H]1C(=O)N[C@H]1CCC[C@@H]1C(=O)N[C@H]1CCC[C@@H]1C(=O)N[C@H]1CCC[C@@H]1C(N)=O`, the inhibition entry in test [9] and in test [10] was “Active” in each case. Besides, the pIC50 at Gamma-secretase [1] was 8.13; on Gamma-secretase [2], 8.61.

In the case of `CC(=O)N1CCC[C@H]1C(=O)N1CCC[C@H]1C(=O)N1CCC[C@H]1C(=O)N1CCC[C@H]1C(=O)N1CCC[C@H]1C(=O)N1CCC[C@H]1C(=O)N1CCC[C@H]1C(=O)N1CCC[C@H]1C(=O)N1CCC[C@H]1C(=O)N1CCC[C@H]1C(=O)N1CCC[C@H]1C(N)=O`, the pIC50 on Gamma-secretase [1] and on Gamma-secretase [2] was less than 4.52 throughout.

On to `CC(=O)N1CCC[C@@H]1C(=O)N1CCC[C@@H]1C(=O)N1CCC[C@@H]1C(=O)N1CCC[C@@H]1C(=O)N1CCC[C@@H]1C(=O)N1CCC[C@@H]1C(=O)N1CCC[C@@H]1C(=O)N1CCC[C@@H]1C(=O)N1CCC[C@@H]1C(=O)N1CCC[C@@H]1C(=O)N1CCC[C@@H]1C(N)=O`, for which the pIC50 at Gamma-secretase [1] and on Gamma-secretase [2] was less than 4.52 each time.

On to `CC(=O)N[C@H]1CCC[C@@H]1C(=O)N[C@H]1CCC[C@@H]1C(=O)N[C@H]1CCC[C@@H]1C(=O)N[C@H]1CCC[C@@H]1C(=O)N[C@H]1CCC[C@@H]1C(=O)N[C@H]1CCC[C@@H]1C(=O)N[C@H]1CCC[C@@H]1C(=O)N[C@H]1CCC[C@@H]1C(=O)N[C@H]1CCC[C@@H]1C(=O)N[C@H]1CCC[C@@H]1C(=O)N[C@H]1CCC[C@@H]1C(N)=O`, for which the pIC50 was 6.65 on Gamma-secretase [1] and 6.61 on Gamma-secretase [2].

Take `CC(=O)N1CCC[C@H]1C(=O)N1CCC[C@H]1C(=O)N1CCC[C@H]1C(=O)N1CCC[C@H]1C(=O)N1CCC[C@H]1C(=O)N1CCC[C@H]1C(=O)N1CCC[C@H]1C(=O)N1CCC[C@H]1C(=O)N1CCC[C@H]1C(N)=O`: the pIC50 at Gamma-secretase [1] and on Gamma-secretase [2] was less than 4.52 each time.

Turning to `CC(=O)N[C@H]1CCC[C@@H]1C(=O)N[C@H]1CCC[C@@H]1C(=O)N[C@@H](CC(N)=O)CC(=O)N[C@H]1CCC[C@@H]1C(=O)N[C@H]1CCC[C@@H]1C(=O)N[C@H]1CCC[C@@H]1C(=O)N[C@H]1CCC[C@@H]1C(=O)N[C@H]1CCC[C@@H]1C(=O)N[C@H]1CCC[C@@H]1C(=O)N[C@H]1CCC[C@@H]1C(=O)N[C@H]1CCC[C@@H]1C(=O)N[C@H]1CCC[C@@H]1C(N)=O`, the result in test [3] was Active. Further, the inhibition result in test [4], in test [9] and in test [10] was “Active” each time. For the same compound, the Ratio IC50 in [5] is 0.0462. The pIC50 at Gamma-secretase [6] is 8.50; on Gamma-secretase [7] it was 7.16; at Gamma-secretase [8], 7.07; on Gamma-secretase [1], 9.06; at Gamma-secretase [2], 9.26.

`CC(=O)N[C@H]1CCC[C@@H]1C(=O)N[C@H]1CCC[C@@H]1C(=O)N[C@H]1CCC[C@@H]1C(=O)N[C@H]1CCC[C@@H]1C(=O)N[C@H]1CCC[C@@H]1C(=O)N[C@H]1CCC[C@@H]1C(=O)N[C@H]1CCC[C@@H]1C(=O)N[C@H]1CCC[C@@H]1C(=O)N[C@H]1CCC[C@@H]1C(=O)N[C@H]1CCC[C@@H]1C(=O)N[C@H]1CCC[C@@H]1C(=O)N[C@H]1CCC[C@@H]1C(N)=O`: in test [5], the Ratio IC50 came to 0.0326. For the same compound, the pIC50 on Gamma-secretase [6] was 7.69; at Gamma-secretase [7], 6.20; on Gamma-secretase [8], 5.93; at Gamma-secretase [1], 8.00; on Gamma-secretase [2] it was 8.06.

For `CC(=O)N1CCC[C@H]1C(=O)N1CCC[C@H]1C(=O)N1CCC[C@H]1C(=O)N1CCC[C@H]1C(=O)N1CCC[C@H]1C(=O)N1CCC[C@H]1C(N)=O`, the pIC50 at Gamma-secretase [1] and on Gamma-secretase [2] was less than 4.52 each time.

In the case of `CC(=O)N[C@H]1CCC[C@@H]1C(=O)N[C@H]1CCC[C@@H]1C(=O)N[C@H]1CCC[C@@H]1C(=O)N[C@H]1CCC[C@@H]1C(=O)N[C@H]1CCC[C@@H]1C(=O)N[C@H]1CCC[C@@H]1C(=O)N[C@H]1CCC[C@@H]1C(=O)N[C@H]1CCC[C@@H]1C(=O)NC(CO)CC(=O)N[C@H]1CCC[C@@H]1C(=O)N[C@H]1CCC[C@@H]1C(=O)N[C@H]1CCC[C@@H]1C(N)=O` (single isomer, unassigned), the inhibition entry in [9] and in [10] was “inactive” throughout.

As to `CC(=O)N[C@H]1CCC[C@@H]1C(=O)N[C@H]1CCC[C@@H]1C(=O)N[C@H]1CCC[C@@H]1C(=O)N[C@H]1CCC[C@@H]1C(=O)N[C@H]1CCC[C@@H]1C(=O)N[C@@H](CC(=O)N[C@H]1CCC[C@@H]1C(=O)N[C@H]1CCC[C@@H]1C(=O)N[C@H]1CCC[C@@H]1C(=O)N[C@H]1CCC[C@@H]1C(=O)N[C@H]1CCC[C@@H]1C(=O)N[C@H]1CCC[C@@H]1C(N)=O)[C@@H](C)O`, the inhibition entry in [9] and in [10] was “inactive” in each case.

On to `CC(=O)N[C@H]1CCC[C@@H]1C(=O)N[C@H]1CCC[C@@H]1C(=O)N[C@H]1CCC[C@@H]1C(=O)N[C@H]1CCC[C@@H]1C(=O)N[C@H]1CCC[C@@H]1C(=O)N[C@H]1CCC[C@@H]1C(=O)N[C@H]1CCC[C@@H]1C(=O)N[C@H]1CCC[C@@H]1C(=O)N[C@@H](CCCCN)CC(=O)N[C@H]1CCC[C@@H]1C(=O)N[C@H]1CCC[C@@H]1C(=O)N[C@H]1CCC[C@@H]1C(N)=O`, for which the inhibition result in test [9] and in test [10] was “inactive” throughout.

Take `CC(=O)N[C@H]1CCC[C@@H]1C(=O)N[C@H]1CCC[C@@H]1C(=O)N[C@H]1CCC[C@@H]1C(=O)N[C@H]1CCC[C@@H]1C(=O)N[C@H]1CCC[C@@H]1C(=O)N[C@H]1CCC[C@@H]1C(=O)N[C@H]1CCC[C@@H]1C(=O)N[C@H]1CCC[C@@H]1C(=O)N[C@@H](CCC(=O)O)CC(=O)N[C@H]1CCC[C@@H]1C(=O)N[C@H]1CCC[C@@H]1C(=O)N[C@H]1CCC[C@@H]1C(N)=O`: the inhibition entry in test [9] and in test [10] was “inactive” throughout.

Turning to `CC(=O)N[C@H]1CCC[C@@H]1C(=O)N[C@H]1CCC[C@@H]1C(=O)N[C@H]1CCC[C@@H]1C(=O)N[C@H]1CCC[C@@H]1C(=O)N[C@H]1CCC[C@@H]1C(=O)N[C@H]1CCC[C@@H]1C(=O)N[C@H]1CCC[C@@H]1C(=O)N[C@H]1CCC[C@@H]1C(=O)N[C@H]1CCC[C@@H]1C(=O)N[C@H]1CCC[C@@H]1C(N)=O`, the figures for the pIC50 on Gamma-secretase [1] and at Gamma-secretase [2] were 5.28 and 5.64, respectively.

Take `CC(=O)N[C@H]1CCC[C@@H]1C(=O)N[C@H]1CCC[C@@H]1C(=O)N[C@@H](C)CC(=O)N[C@H]1CCC[C@@H]1C(=O)N[C@H]1CCC[C@@H]1C(=O)N[C@H]1CCC[C@@H]1C(=O)N[C@H]1CCC[C@@H]1C(=O)N[C@H]1CCC[C@@H]1C(=O)N[C@H]1CCC[C@@H]1C(=O)N[C@H]1CCC[C@@H]1C(=O)N[C@H]1CCC[C@@H]1C(=O)N[C@H]1CCC[C@@H]1C(N)=O`: the inhibition result in [9] and in test [10] was “Active” throughout.

The values are drawn from ChEMBL document CHEMBL2331477, “Effect of helical conformation and side chain structure on γ-secretase inhibition by β-peptide foldamers: insight into substrate recognition” (J Med Chem, 2013).
